# What was measured:
# [1] = Energy expenditure study in diet-induced obese mice (indirect calorimetry, telemetry); assay type: in vivo
# Experimental: Male C57BL/6J mice were obtained from Charles River Laboratories (Sulzfeld, Germany) at age 6–7 weeks. Animals were housed in groups of five in individually ventilated cages with a 12 h light/dark cycle (06:00–18:00) and were acclimatized for 1 week with ad libitum feeding. Animals were then fed a 45% HFD for 18 or 30 weeks, before randomization to groups with similar average bodyweight at Day −1. Animals were dosed QD with SC vehicle (25 mM phosphate-buffered saline) or BI 456906 (5, 10, or 20 nmol/kg) for 9 days, with energy metabolism, activity, and core body temperature measured each day. On Day 10, mice were sacrificed by cervical dislocation after a final bleeding by puncture of the retrobulbar venous plexus.
# Energy metabolism was measured by indirect calorimetry. […] The mass flow of air through the respiratory cages and the concentrations of O2 and CO2 in inspired and expired air were measured every 10 min. […] Energy expenditure was analyzed by ANCOVA (see 2.16) for animals kept in single housing (dose groups 5 and 10 nmol/kg), applying statistical analysis using a general linear model framework including bodyweight as a covariate. […] Therefore, the regression-based ANCOVA was not calculated. Core body temperature and activity were measured by sensors (model 10TA10TA-F10; Data Sciences International, New Brighton, MA, USA) implanted in the peritoneal cavities. […]
# [2] = target: T1, GLP-1R (Mus musculus, UniProt O35659); test: Intraperitoneal glucose tolerance test in lean mice, single dosing; assay type: in vivo; settings: read-out: ED50 ipGTT
# T1 construct: The acute potency of BI 456906 in engaging the GLP-1R was tested in lean mice after single dosing; tissue Janvier Labs; host or cells: whole animal: lean wild-type NMRI, C57BL6/J or B6J mice
# T1 sequence (O35659 22-463): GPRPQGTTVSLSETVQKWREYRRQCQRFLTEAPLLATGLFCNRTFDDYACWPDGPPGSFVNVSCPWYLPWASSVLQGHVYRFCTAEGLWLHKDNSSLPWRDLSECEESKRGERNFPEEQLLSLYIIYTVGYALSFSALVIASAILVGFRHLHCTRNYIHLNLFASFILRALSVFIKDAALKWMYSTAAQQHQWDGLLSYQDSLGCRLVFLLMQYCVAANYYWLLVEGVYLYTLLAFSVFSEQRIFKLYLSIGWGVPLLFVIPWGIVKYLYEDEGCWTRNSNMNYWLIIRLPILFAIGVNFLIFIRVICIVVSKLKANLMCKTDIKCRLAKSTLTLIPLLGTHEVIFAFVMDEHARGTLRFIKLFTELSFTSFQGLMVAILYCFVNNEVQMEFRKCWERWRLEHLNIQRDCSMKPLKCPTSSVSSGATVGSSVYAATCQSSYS
# Experimental: Pre-treatment blood glucose was measured at −5 h. […] Baseline blood glucose was measured at −1 h, and then an intraperitoneal bolus of 2 g/kg glucose was applied at 0 h. Blood glucose was measured at 0, 15, 30, 60, and 120 min, and compound exposure was measured at 140 min.
# (§2) ED50 values were calculated in GraphPad Prism 9 using the nonlinear fit tool.
# [3] = target: T2, endogenous GCGR (Rattus norvegicus, UniProt P30082); test: cAMP stimulation in primary rat hepatocytes; assay type: cell-based; settings: 0.1% BSA, Figure 1B, read-out: cAMP pEC50±SD, Rat Hepatocytes (converted)
# T2 construct: endogenous in cells; host or cells: primary rat hepatocytes
# [4] = target: T3, Human GLP-1R (Homo sapiens, UniProt P43220); test: Ex vivo bioactivity assay, HEK cells with human GLP-1R and CRE-luciferase, 100% mouse plasma
# [5] = target: T4, endogenous GCGR (Mus musculus, UniProt Q61606); test: cAMP stimulation in primary mouse hepatocytes; assay type: cell-based; settings: 0.1% BSA, Figure 1B, read-out: cAMP pEC50±SD, Mouse Hepatocytes (converted)
# T4 construct: endogenous in cells; host or cells: primary mouse hepatocytes
# [6] = Pharmacokinetics in mice; assay type: in vivo
# Experimental: (§1) For pharmacokinetic analysis, male C57BL/6NRj mice (Janvier, France) were given a single intravenous (IV) or subcutaneous (SC) BI 456906 dose (20 nmol/kg; N = 3 per route). In addition, male Beagle dogs received an IV or SC dose of 5 nmol/kg or 10 nmol/kg (N = 3) BI 456906, respectively. Plasma samples were generated at different time points post dosing and stored at −20 °C until further analysis. Plasma concentrations of BI 456906 were measured using a liquid chromatography/tandem mass spectrometry (LC/MS/MS) method with a calibration range of 0.5–1000 nM on a QTRAP 6500+ (Sciex, Framingham, MA, USA). Samples were pre-treated with ethanol for protein precipitation before the analysis.
# [7] = target: T1, GLP-1R; test: Inhibition of acute food intake in lean NMRI mice; assay type: in vivo; settings: single SC dose, 24 h food intake
# Experimental: The room temperature was controlled at 21 °C ± 1 °C, with 60% ± 20% humidity. […] Six-week-old male mice were randomized into treatment groups based on food intake and bodyweight (n = 8–10 per group). […] ED50 values were calculated in GraphPad Prism 9 using the nonlinear fit tool.
# [8] = target: T5, GCGR (Rattus norvegicus, UniProt P30082); test: Inhibition of glycogen synthesis in primary rat hepatocytes (14C-glucose incorporation); assay type: cell-based; settings: 0.1% BSA, 22.5 mM glucose, 180 min, Figure 1B, read-out: GSi pIC50±SD, Rat Hepatocytes (converted)
# T5 construct: endogenous in cells; host or cells: primary rat hepatocytes
# [9] = target: T6, Human GCGR (Homo sapiens, UniProt P47871); test: cAMP stimulation in CHO-K1 cells expressing human GCGR (AlphaScreen); assay type: cell-based; settings: read-out: functional potency (EC50) in CHO-K1 cells, GCGR
# [10] = target: T6, Human GCGR; test: CRE-induced luciferase activity, HEK293 CRE-luc2P cells, human GCGR, in plasma; assay type: cell-based; settings: for EC50: n = 3
# [11] = target: T7, endogenous mouse GLP-1R (Mus musculus, UniProt O35659); test: cAMP stimulation in mouse insulinoma MIN6 cells; assay type: cell-based
# T7 construct: The EC50 for the endogenous mouse GLP-1R was assessed in the insulinoma cell line MIN6; endogenous in cells; host or cells: MIN6 mouse insulinoma cells
# T7 sequence (O35659 22-463): T1 sequence (O35659 22-463)
# [12] = target: T3, Human GLP-1R; test: cAMP stimulation in CHO-K1 cells expressing human GLP-1R (AlphaScreen); assay type: cell-based; settings: read-out: functional potency (EC50) in CHO-K1 cells, GLP-1R
# [13] = Pharmacokinetics in Beagle dogs; assay type: in vivo; settings: dog, SC injection, 10 nmol/kg, male Beagle dogs, N = 3, plasma, LC/MS/MS (Table S1)
# Experimental: as §1
# [14] = target: T1, GLP-1R; test: Oral glucose tolerance test in lean mice, single dosing; assay type: in vivo
# Experimental: Mice were then fasted from −10 h, before bolus ingestion of glucose (2 g/kg) at 0 h. Blood glucose was measured at 0, 15, 30, 60, and 120 min, and compound exposure was measured at 120 min. In both experiments, glucose was measured in whole blood using a commercially available glucometer (GlucoSmart Swing) with test strips (MSP bodmann GmbH, Bobingen, Germany). Data are represented as mean ± standard error of mean (SEM) and were compared using GraphPad Prism 9 using two-way ANOVA, followed by Dunnett’s method for multiple comparisons versus vehicle. Significant differences were identified at p < 0.05.
# as §2
# [15] = target: T1, GLP-1R; test: Acute gastric emptying (acetaminophen) in lean mice; assay type: in vivo
# Experimental: After 60 min, ex vivo assays assessing acetaminophen, blood glucose, and terminal exposure were carried out. Acetaminophen was measured using an automated analyzer (Cobas Integra 400; Roche, Rotkreuz, Switzerland). […] ED50 values were calculated in GraphPad Prism 9 using the nonlinear fit tool.
# [16] = target: T8, endogenous GCGR (Homo sapiens, UniProt P47871); test: cAMP stimulation in primary human hepatocytes; assay type: cell-based; settings: 0.1% BSA, Figure 1B, read-out: cAMP pEC50±SD, Human Hepatocytes (converted)
# T8 construct: endogenous in cells; host or cells: primary human hepatocytes
# [17] = target: T6, Human GCGR; test: Ex vivo bioactivity assay, HEK cells with human GCGR and CRE-luciferase, 100% mouse plasma; settings: DIO mice, plasma at study end, maximal dose of 30 nmol/kg
# [18] = target: T3, Human GLP-1R; test: CRE-induced luciferase activity, HEK293 CRE-luc2P cells, human GLP-1R, in plasma; assay type: cell-based; settings: n = 3
# [19] = target: human glucagon receptor (human) (UniProt P47871)
# [20] = target: human glucagon-like peptide-1 receptor (human) (UniProt P43220)
# [21] = target: endogenous mouse GLP-1R (mouse (endogenous in MIN6)) (UniProt O35659)
# [22] = target: human glucagon receptor (human) (UniProt P47871); remark: listed apart in the source
# [23] = target: human glucagon-like peptide-1 receptor (human) (UniProt P43220); remark: listed apart in the source
# human glucagon-like peptide-1 receptor (human), sequence (P43220 24-463): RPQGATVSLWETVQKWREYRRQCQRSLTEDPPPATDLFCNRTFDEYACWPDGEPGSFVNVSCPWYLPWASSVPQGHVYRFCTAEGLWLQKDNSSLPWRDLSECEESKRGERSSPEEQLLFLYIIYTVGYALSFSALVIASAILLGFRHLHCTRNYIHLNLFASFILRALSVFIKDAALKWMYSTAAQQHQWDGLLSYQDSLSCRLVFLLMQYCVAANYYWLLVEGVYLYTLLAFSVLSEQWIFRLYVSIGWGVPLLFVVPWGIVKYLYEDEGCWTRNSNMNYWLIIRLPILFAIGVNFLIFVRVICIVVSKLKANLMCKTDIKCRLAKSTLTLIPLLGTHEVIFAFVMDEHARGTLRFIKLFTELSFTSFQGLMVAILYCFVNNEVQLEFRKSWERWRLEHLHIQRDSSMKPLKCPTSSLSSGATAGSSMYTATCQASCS
# T3 sequence (P43220 24-463): as above
# T6 sequence (P47871 26-477): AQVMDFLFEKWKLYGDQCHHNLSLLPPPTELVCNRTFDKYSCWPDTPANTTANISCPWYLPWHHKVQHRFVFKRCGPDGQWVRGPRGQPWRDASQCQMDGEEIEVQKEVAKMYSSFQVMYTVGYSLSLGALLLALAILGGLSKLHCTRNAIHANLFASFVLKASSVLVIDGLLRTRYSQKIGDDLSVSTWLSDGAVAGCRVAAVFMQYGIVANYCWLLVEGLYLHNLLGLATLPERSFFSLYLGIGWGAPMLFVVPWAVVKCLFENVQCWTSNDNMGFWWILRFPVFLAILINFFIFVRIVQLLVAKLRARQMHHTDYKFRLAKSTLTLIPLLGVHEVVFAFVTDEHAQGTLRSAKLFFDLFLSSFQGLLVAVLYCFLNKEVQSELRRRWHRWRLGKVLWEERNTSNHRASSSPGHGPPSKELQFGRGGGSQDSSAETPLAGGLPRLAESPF
# human glucagon receptor (human), sequence (P47871 26-477): as above
# T5 sequence (P30082 27-485): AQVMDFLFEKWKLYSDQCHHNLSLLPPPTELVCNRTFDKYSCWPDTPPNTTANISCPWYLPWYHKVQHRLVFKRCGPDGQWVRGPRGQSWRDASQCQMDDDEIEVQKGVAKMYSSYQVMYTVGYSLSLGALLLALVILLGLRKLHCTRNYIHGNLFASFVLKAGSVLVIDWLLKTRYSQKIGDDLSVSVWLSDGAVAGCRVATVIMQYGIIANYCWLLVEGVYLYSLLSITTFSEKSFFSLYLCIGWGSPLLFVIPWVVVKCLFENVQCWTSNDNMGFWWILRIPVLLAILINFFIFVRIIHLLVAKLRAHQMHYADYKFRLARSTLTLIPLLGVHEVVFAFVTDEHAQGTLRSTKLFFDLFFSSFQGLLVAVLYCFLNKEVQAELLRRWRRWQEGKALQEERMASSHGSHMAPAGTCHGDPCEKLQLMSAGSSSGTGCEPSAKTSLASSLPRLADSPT
# T2 sequence (P30082 27-485): as above
# T8 sequence (P47871 26-477): as the sequence (P47871 26-477) above
# T4 sequence (Q61606 27-485): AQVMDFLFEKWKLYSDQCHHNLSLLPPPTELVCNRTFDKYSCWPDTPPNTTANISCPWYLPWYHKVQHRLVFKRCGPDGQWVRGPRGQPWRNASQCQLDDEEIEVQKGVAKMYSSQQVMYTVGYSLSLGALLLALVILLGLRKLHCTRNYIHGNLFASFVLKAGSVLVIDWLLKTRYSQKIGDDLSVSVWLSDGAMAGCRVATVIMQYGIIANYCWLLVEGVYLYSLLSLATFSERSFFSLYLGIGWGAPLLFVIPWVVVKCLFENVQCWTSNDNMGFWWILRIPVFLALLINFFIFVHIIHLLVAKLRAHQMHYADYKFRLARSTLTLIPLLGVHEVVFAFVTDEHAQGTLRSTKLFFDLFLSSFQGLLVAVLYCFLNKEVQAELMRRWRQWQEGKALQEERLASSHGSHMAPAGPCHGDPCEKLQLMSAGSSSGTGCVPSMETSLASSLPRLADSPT
compound,measurement,setting,value
CC[C@H](C)[C@H](NC(=O)[C@H](Cc1ccccc1)NC(=O)[C@H](CC(=O)O)NC(=O)[C@H](CCCCN)NC(=O)[C@H](C)NC(=O)[C@H](C)NC(=O)[C@H](CCCNC(=N)N)NC(=O)[C@H](CCC(=O)O)NC(=O)[C@H](CC(=O)O)NC(=O)[C@H](CC(C)C)NC(=O)[C@H](Cc1ccc(O)cc1)NC(=O)[C@H](CCCCN)NC(=O)[C@H](CO)NC(=O)[C@H](Cc1ccc(O)cc1)NC(=O)[C@H](CC(=O)O)NC(=O)[C@H](CO)NC(=O)[C@@H](NC(=O)[C@H](Cc1ccccc1)NC(=O)[C@@H](NC(=O)CNC(=O)[C@H](CCC(N)=O)NC(=O)C1(NC(=O)[C@@H](N)Cc2c[nH]cn2)CCC1)[C@@H](C)O)[C@@H](C)O)C(=O)N[C@@H](CCCCNC(=O)CNC(=O)CNC(=O)[C@H](CO)NC(=O)CNC(=O)[C@H](CO)NC(=O)CNC(=O)CC[C@H](NC(=O)CCCCCCCCCCCCCCCCC(=O)O)C(=O)O)C(=O)N[C@@H](Cc1c[nH]c2ccccc12)C(=O)N[C@@H](CC(C)C)C(=O)N[C@@H](CCC(=O)O)C(=O)N[C@@H](CO)C(=O)N[C@@H](C)C(N)=O [BI 456906],energy expenditure (in words),"[1]; DIO mice, 5, 10 or 20 nmol/kg SC QD for 9 days, indirect calorimetry",dose-dependent increase in energy expenditure
same,core body temperature and activity (in words),"[1]; DIO mice, therapeutic doses, implanted sensors",did not increase core body temperature or activity
same,ED50,[2],0.004 µmol/kg
same,EC50,[3],18.6 nM
same,EC50,[4],2.4 nM
same,"ex vivo bioequivalence over EC50, GLP-1R","[4]; DIO mice, plasma at study end, maximal dose of 30 nmol/kg",less than 1000 fold
same,EC50,[5],407 nM
same,terminal half-life in mouse plasma compared with semaglutide (in words),[6]; mouse pharmacokinetic profiles (Table S1),longer terminal half-life
same,Tmax,"[6]; mouse, SC injection, 20 nmol/kg single dose, male C57BL/6NRj mice, N = 3, plasma, LC/MS/MS (Table S1)",7 h
same,MRT,"[6]; mouse, SC injection, 20 nmol/kg single dose, male C57BL/6NRj mice, N = 3, plasma, LC/MS/MS (Table S1), read-out: mean residence time",44 h
same,ED50,[7],0.09 µmol/kg
same,IC50,[8],0.437 nM
same,EC50,[9],0.52 nM
same,fold less potent at the GCGR in relation to endogenous glucagon,[10]; 0.5% human and mouse plasma,~6 fold
same,EC50,"[10]; Human GCGR HEK293 Cre-Luc EC50, Human Plasma 0.5%, 0.5% human plasma in KRBH, 4 h 37 °C",0.29 nM
same,EC50,"[10]; Human GCGR HEK293 Cre-Luc EC50, Human Plasma 100%, 100% human plasma, 4 h 37 °C",8.3 nM
same,EC50,"[10]; Human GCGR HEK293 Cre-Luc EC50, Mouse Plasma 0.5%, 0.5% mouse plasma in KRBH, 4 h 37 °C",0.17 nM
same,EC50,"[10]; Human GCGR HEK293 Cre-Luc EC50, Mouse Plasma 100%, 100% mouse plasma, 4 h 37 °C",16 nM
same,EC50,"[10]; Human GCGR HEK293 Cre-Luc pEC50±SD, Human Plasma 0.5%, 0.5% human plasma",0.288 nM
same,EC50,"[10]; Human GCGR HEK293 Cre-Luc pEC50±SD, Human Plasma 100%, 100% human plasma",8.32 nM
same,EC50,"[10]; Human GCGR HEK293 Cre-Luc pEC50±SD, Mouse Plasma 0.5%, 0.5% mouse plasma",0.17 nM
same,EC50,"[10]; Human GCGR HEK293 Cre-Luc pEC50±SD, Mouse Plasma 100%, 100% mouse plasma",15.5 nM
same,EC50,[11],0.36 nM
same,EC50,[12],0.33 nM
same,Tmax,[13],51 h
same,MRT,[13]; read-out: mean residence time,140 h
same,ED50,[14],0.0021 µmol/kg
same,ED50,"[15]; mouse, sc",0.041 µmol/kg
same,"inhibition of gastric emptying, effective doses (in words)","[15]; reduced acetaminophen excursion, single SC dose, lean mice",effective only at higher doses of 100 and 300 nmol/kg
same,EC50,[16],537 nM
same,"ex vivo bioequivalence over EC50, GCGR",[17],< 100 fold
same,EC50,"[18]; Human GLP-1R HEK293 Cre-Luc EC50, Mouse Plasma 100%, 100% mouse plasma, 4 h 37 °C",1.6 nM
same,EC50,"[18]; Human GLP-1R HEK293 Cre-Luc pEC50±SD, Human Plasma 0.5%, 0.5% human plasma",0.0148 nM
same,EC50,"[18]; Human GLP-1R HEK293 Cre-Luc pEC50±SD, Human Plasma 100%, 100% human plasma",1 nM
same,EC50,"[18]; Human GLP-1R HEK293 Cre-Luc pEC50±SD, Mouse Plasma 0.5%, 0.5% mouse plasma",0.00759 nM
same,EC50,"[18]; Human GLP-1R HEK293 Cre-Luc pEC50±SD, Mouse Plasma 100%, 100% mouse plasma",1.62 nM
BI 456906 (peptide),"EC50 of cAMP generation (AlphaScreen cAMP assay), CHO-K1 cells expressing human GCGR, 0.1% BSA",[19],0.52 nM
same,"EC50 of cAMP generation (AlphaScreen cAMP assay), CHO-K1 cells expressing human GLP-1R, 0.1% BSA",[20],0.33 nM
same,"EC50 of cAMP generation, mouse insulinoma MIN6 cells (endogenous receptor)",[21],0.36 nM
same,"EC50 in the CRE-luciferase assay, HEK293 CRE-luc2P cells expressing recombinant GCGR, 0.5% human plasma",[22],0.29 nM
same,"EC50 in the CRE-luciferase assay, HEK293 CRE-luc2P cells expressing recombinant GCGR, 0.5% mouse plasma",[22],0.17 nM
same,"EC50 in the CRE-luciferase assay, HEK293 CRE-luc2P cells expressing recombinant GCGR, 100% human plasma",[22],8.3 nM
same,"EC50 in the CRE-luciferase assay, HEK293 CRE-luc2P cells expressing recombinant GCGR, 100% mouse plasma",[22],16 nM
same,"EC50 in the CRE-luciferase assay, HEK293 CRE-luc2P cells expressing recombinant GLP-1R, 100% human plasma",[23],1 nM
same,"EC50 in the CRE-luciferase assay, HEK293 CRE-luc2P cells expressing recombinant GLP-1R, 100% mouse plasma",[23],1.6 nM
glucagon-like peptide-1,"EC50 of cAMP generation, mouse insulinoma MIN6 cells (endogenous receptor)",[21],0.06 nM
